Laboratory results published in US4863902A, “Treatment of cancer” (Wakunaga Seiyaku Kabushiki Kaisha, priority 1985, dated 1989).

Assays:
[1] = tested on: Colon adenocarcinoma 26 (mouse colon adenocarcinoma); assay: Tumor weight of transplanted Colon adenocarcinoma 26 in BALB/c mice; assay type: in vivo; settings: for antitumor effect potentiating action, same experiment as Experimental Example 13: in combination with cyclophosphamide in place of 5-FU
Protocol: After BALB/c mice were preliminarily fed in a thermostat (23°±0.5° C.), humidistat (60±5%) room for 1 week, those which appear to be healthy weighing 18-20 g were provided for the present experiment in 6-12 mice per 1 group.
(§1) Colon adenocarcinoma 26 (mouse colon adenocarcinoma) was minced into pieces and about 0.1 to 0.2 ml thereof was transplanted subcutaneously on the right side of mouse abdomen by a cell transplanting needle (trocker). Six days after transplantation, the size of tumor, namely longer diameter (a mm) and shorter diameter (b mm) of tumor were measured and the tumor weight was calculated according to the formula shown below [Instruction 14 (NCI) 1980].
(§2) Tumor weight (mg)=ab^2 /2
(§3) Before carrying out experiments, tumor weights were measured immediately before administration of the compounds and the mice were grouped into 3 groups by use of random numbers so that there may be no difference in average value of the tumor weights on initiation of experiments between the respective groups to make even the average values of tumor weights of the respective groups, and thereafter the compounds were administered to the respective groups.
In this FIGURE, the axis of abscissa indicates the experimental days with the day of compound administration being the day 1, and the axis of ordinate indicates tumor cell growth ratio which is the ratio of the tumor weight after elapse of the respective days relative to the tumor weight on the day 1 as being 100%.

[2] = tested on: Colon adenocarcinoma 38 (mouse colon adenocarcinoma); assay: Tumor weight of transplanted Colon adenocarcinoma 38 in C57BL/6 mice; assay type: in vivo; settings: for antitumor effect of (a) + (b) (quantity not headed; method of Experimental Example 4): Table 21
Protocol: as §1, with “38” for “26”, “Eleven” for “Six”
as §2
In the Table, days indicate the experimental days with the day of compound administration being as the day 1, and the tumor weight immediately before administration of compound of day 1 is made 100. The respective values show the average value ± standard error of case numbers of 10 to 20, in the Table, the marks of (*), * and *** indicate the statistical significance difference of the combined administration group relative to the 5-FU single administration group (the definition of P is as defined above).

receptor = receptor (Homo sapiens, UniProt P00533); settings: J. Biol. Chem., 247, 7659 (1972); cited from earlier work
[3] = tested on: mouse ovarian tumor M5076; assay: Tumor weight of solid tumor of mouse ovarian tumor in BDF1 mice; assay type: in vivo; settings: used together with mytomycin C in place of cisplatin
Protocol: BDF1 male mice were employed. The feeding conditions were the same as in Experimental Example 1.
Mouse ovarian tumor M5076 was transplanted subcutaneously at the axialla of mouse in 1-2×10^6 cells per mouse. 12 days after transplantation, the size of tumor was measured according to the same method as in Experimental Example 1 (Colon 26) and the tumor weight was calculated.
The grouping operation on initiation of Experiments was conducted in the same manner as in Experimental Example 1. The compounds were administered in the same manner as in Experimental Example 9.
The experiment was carried out in the samme manner as in Experimental Examples 1, 7 and as in Experimental Example 17 for others.

[4] = tested on: MX-1 (human breast cancer); assay: Tumor weight of transplanted human breast cancer in nude mice; assay type: in vivo, mouse (human tumor xenograft); settings: Table 4, adriamycin 10 mg/Kg, hEGF 100 μg/Kg on days 1, 8, 10 and 13, average ± standard error of 8 mice
Protocol: After BALB/c AJcl-nu strain male nude mice were preliminarily fed for one week in an aseptic clean rack maintained at a constant temperature, (23±0.5°
C.) and a constant humidity (60±5%), those which appeared to be healthy weighing around 20 g were provided for the present experiment in 8 mice per group. The mice employed in the present experiments hereinafter were fed under the above environment.
MX-1 (human breast cancer) was cut into sizes of about 1 mm square and transplanted subcutaneously on the right side of mouse axilla by a cell transplanting needle (trocker). 17 days after transplantation, the size of tumor, namely the longer diameter (a mm) and shorter diameter (b mm) were measured and the tumor weight was calculated by the following formula similarly as for Colon 26.
as §2
as §3, with “the compounds (the day 17 after tumor transplantation) and the” for “the compounds and the”
Administration of the compounds was conducted 4 times as the total on the day 1, the day 8, the day 10 and the day 13. The test solutions were as shown below.

[5] = (a) Adriamycin, Mixed injection
[6] = (a) Adriamycin, Separate injection
[7] = (a) Cisplatin, Separate injection

Molecule | antitumor effect potentiating action, same experiment as Experimental Example 13 [1] | antitumor action potentiating effect, same experiment as Experimental Example 8 ([1]; used in place of hEGF in combination with 5 mg/Kg cisplatin) | antitumor effect of (a) + (b) (quantity not headed; method of Experimental Example 4) [2, 5] | antitumor effect of (a) + (b) (quantity not headed; method of Experimental Example 4) [2, 6] | antitumor effect of (a) + (b) (quantity not headed; method of Experimental Example 4) ([2]; (a) Cisplatin, Mixed injection) | antitumor effect of (a) + (b) (quantity not headed; method of Experimental Example 4) [2, 7] | antitumor effect of (a) + (b) (quantity not headed; method of Experimental Example 4) ([2]; (a) Tegafur, Mixed injection) | antitumor effect of (a) + (b) (quantity not headed; method of Experimental Example 4) ([2]; (a) Tegafur, Separate injection) | tumor cell growth inhibition, same experiment as Experimental Example 4 ([2]; used in place of hEGF in combination with 5-FU) | tumor cell growth inhibition, same experiment as Experimental Example 14 ([2]; used in place of hEGF in combination with Tegafur) | binding ability of receptor or biological activity (receptor) | antitumor effect potentiation, same experiment as Experimental Example 17 [3] | Tumor weight (day 1 = 100) ([4]; day 4) | Tumor weight (day 1 = 100) ([4]; day 7) | Tumor weight (day 1 = 100) ([4]; day 11) | Tumor weight (day 1 = 100) ([4]; day 14)
hEGF-II: fragment lacking two amino acid residues on the C-terminal side of hEGF (NSDSECPLSHDGYCLHDGVCMYIEALDKYACNCVVGYIGERCQYRDLKWWE; not fully specified; Epidermal growth factor; UniProt P01133 971-1021, looked up, fragment) | the same results | the same results | 105.6 | 103.3 | 102.3 | 96.6 | 47.8 | 42.8 | the same results | the same results | the same as hEGF | the same results |  |  |  | 
hEGF: human epidermal growth factor/urogastrone, 53 amino acid residues, three disulfide bonds | the same results |  | 103.1 | 98.5 | 88.8 | 80.3 |  |  |  |  |  | the same results |  |  |  | 
COc1cccc2c1C(=O)c1c(O)c3c(c(O)c1C2=O)C[C@@](O)(C(=O)CO)C[C@@H]3O[C@H]1C[C@H](N)[C@H](O)[C@H](C)O1 [Adriamycin, adriamycin] |  |  |  |  |  |  |  |  |  |  |  |  | 162.0 ± 5.4 | 221.8 ± 20.1 | 291.8 ± 21.3 | 256.9 ± 12.7
